Results taken from PMC11303563 (Communications Medicine, 2024).
Several values for one entry are separate records, joined by “and”; a condition that tells them apart may be missing. Identical values can stand only once.

How the values were obtained:
[1] = system: high-fat diet (HFD)-induced obesity model mice; assay: Body weight of high-fat diet-induced obesity model mice; type: in vivo, C57BL/6J mice; set-up: Body weight, Mean Diff. ND vs. treated: unit not given here; conditions: for Body weight, 95.00% CI of diff. ND vs. treated / Body weight, Mean Diff. ND vs. treated: ND group as comparator; for Body weight, 95.00% CI of diff. ND vs. treated / Body weight, Mean Diff. ND vs. treated / Body weight, 95.00% CI of diff. Vehicle vs. treated / Body weight, Mean Diff. Vehicle vs. treated: Tukey's multiple comparisons test; for Body weight, Mean Diff. Vehicle vs. treated / Body weight, group mean (Fig. 3a) / Body weight, individual mice (Fig. 3a): in g (unit assumed); for Body weight, group mean (Fig. 3a): n 10
Description: The injection was given 6 h after light on. Food consumption and body weights were measured weekly. Food and water were provided to the animals ad libitum. The animals were treated according to the guidelines of Nagoya University, and all experimental procedures were approved by the Animal Experiment Committee of Nagoya University (A210715-003).
(§1) Epididymal adipose tissue was weighed.
(§2) Fig. 3 Effects of intraperitoneal injection of TH analogs on body weight and deposition of visceral fat. […] After three weeks of injection, body weight (a), and weight of the epididymal adipose tissue (b) were measured.

[2] = system: high-fat diet (HFD)-induced obesity model mice; assay: Weight of epididymal adipose tissue (visceral fat) in HFD mice; type: in vivo, C57BL/6J mice; conditions: for Fig. 3b (weight of epididymal adipose tissue), group mean (Mean 2) / Epididymal adipose weight, individual mice (Fig. 3b) / weight of the epididymal adipose tissue vs vehicle: HFD mice; for Fig. 3b (weight of epididymal adipose tissue), group mean (Mean 2): n=10; for Fig. 3b (weight of epididymal adipose tissue), group mean (Mean 2) / Fig. 3b (weight of epididymal adipose tissue), Mean Diff. ND vs. treatment (Tukey) / Fig. 3b (weight of epididymal adipose tissue), Mean Diff. Vehicle vs. treatment (Tukey) / Epididymal adipose weight, individual mice (Fig. 3b): in mg (unit assumed); for Fig. 3b (weight of epididymal adipose tissue), Mean Diff. ND vs. treatment (Tukey): ND minus treated; for Fig. 3b (weight of epididymal adipose tissue), Mean Diff. Vehicle vs. treatment (Tukey): Vehicle minus treated; for weight of the epididymal adipose tissue vs vehicle: 3 weeks
Description: as §1, §2

[3] = system: high-fat diet (HFD)-induced obesity model mice; assay: Serum lipid analysis (total cholesterol, triglycerides) in HFD mice; type: in vivo, C57BL/6J mice; set-up: Serum TC (Fig. 4a), individual mouse values / Serum TG (Fig. 4b), individual mouse values / Serum TC (Fig. 4a), Mean Diff. ND vs. treatment (Tukey) / Serum TC (Fig. 4a), Mean Diff. Vehicle vs. treatment (Tukey) / Serum TC (Fig. 4a), group mean (Mean 2) / Mean Diff., ND vs. treated (Fig. 4b) / Mean Diff., Vehicle vs. treated (Fig. 4b) / Mean (Fig. 4b): unit not given here; conditions: for Serum TC (Fig. 4a), group mean (Mean 2) / Mean (Fig. 4b): n=10; for Serum TC (Fig. 4a), Mean Diff. ND vs. treatment (Tukey): ND minus treated; for Serum TC (Fig. 4a), Mean Diff. Vehicle vs. treatment (Tukey): Vehicle minus treated; for Mean Diff., ND vs. treated (Fig. 4b) / Mean Diff., Vehicle vs. treated (Fig. 4b): Tukey's multiple comparisons test; for Mean (Fig. 4b): group mean
Description: Fig. 4 Effects of TH analogs on the accumulation of lipids in mice. […] After 3 weeks of injection, serum and liver tissues were collected, and the amount of serum cholesterol (a), serum triglycerides (b), liver cholesterol (c), liver triglycerides (d), and liver total lipids (e) were measured.

[4] = system: high-fat diet (HFD)-induced obesity model mice; assay: Oil Red O staining of the liver section; type: in vivo, C57BL/6J mice; conditions: i.p. 1 µmol/kg·day, 3 weeks
Description: 20 µm sections were prepared from frozen liver tissues using Cryostat (CM3050 S, Leica). Sections were affixed to silane-coated glass slides, dried at room temperature, and stored at −80 °C until use. Before staining, sections were fixed with 1% PFA/1 × PBS, pH 7.4 (Gibco) for 5 min, immersed in 1 × PBS for 5 min, distilled water for 5 min, and 60% 2-propanol solution for 1 min. Oil Red O staining solution was prepared by mixing 0.36 g of Oil Red O (Sigma) with 120 mL of 2-propanol and 80 mL of distilled water, allowing the solution to stand at room temperature for 1 h, then filtering the solution and leaving it overnight at 37 °C. Sections were immersed in the Oil Red O staining solution at 37 °C for 15 min, rinsed in 60% 2-propanol for 1 min, and in distilled water for 1 min. Sections were counterstained with Meyer’s hematoxylin. […] The area of red-stained fat droplets was quantified using Image J (National Institutes of Health), and the percentage of the stained area in the total image area was calculated. Nine different parts in three consecutive sections per mouse were analyzed.
Fig. 5 Oil Red O staining of the liver section of mice treated with TH analogs. […] After three weeks of injection, liver tissues were collected, frozen sections were prepared, and subjected to Oil Red O staining (a). Stained areas were quantified and normalized to the total image area. […]

[5] = In vitro blood-brain barrier permeability assay (BBB kit RBT-24H); type: in vitro ADME, rat; conditions: rat, 10 μM on luminal side, read-out: apparent permeability (Papp)
Description: Therefore, we tested BBB transparency in vitro using the BBB kit RBT-24H (PharmaCo-Cell)[35]. […] Blood-brain barrier permeability assay The blood-brain barrier (BBB) transparency of TH analogs was assessed in vitro using RBT-24H (PharmaCo-Cell)[5] according to the manufacturer 's protocol. […] After 30 min, the assay buffer in the wells mimicking the abluminal side was collected, and the concentration of the compounds was measured using liquid chromatography-mass spectrometry (LC-MS). […] These tips were preconditioned with 20 μL of acetonitrile and 20 μL of 0.1% TFA in purified water. 100 μL of the samples were loaded onto the preconditioned tips, washed with 200 μL of DW, and then eluted with 10 μL of acetonitrile. Triazine (1% vol/vol) was added to the eluent as an internal standard. […] 3 μm; Imtakt, Kyoto, Japan). All the experiments were performed using an Ultimate 3000 UHPLC system coupled with a Q Exactive Plus Orbitrap mass spectrometer (Thermo Fisher Scientific). […] Data were shown as mean ± standard deviation (n=3).

[6] = system: THR-regulated genes and lipid metabolism-related genes in the liver
[7] = Serum ALT (hepatotoxicity); conditions: for Serum ALT, group mean (Mean 2): n 10, Vehicle mean […]; for serum ALT level vs vehicle: HFD mice, 3 weeks
Description: Male 7-week-old C57BL/6J mice were obtained from a local supplier (Nihon SLC, Shizuoka, Japan). The mice were individually housed in cages (Innocage; ORIENTAL GIKEN) at 23 °C with a 12-h-light–dark cycle starting at 08:00 a.m. […] The injection was prepared by dissolving the compounds in 0.5 N NaOH at a concentration of 100 mM, which was then further diluted with saline to a concentration of either 0.05 or 0.5 mM. The volume of the solution injected was determined based on the body weight of the animal, measured once a week, with 0.05 and 0.5 mM solutions injected at 0.1 and 1 µmol/kg day, respectively. Each group consisted of 10 animals, except for the ND (n = 8) and HFD with saline (vehicle, n = 9) groups. […] In the HFD-treated group, one animal was excluded from the analysis because its body weight was less than two standard deviations below the mean.
The blood samples were left to stand for 1 h at room temperature, then centrifuged at 4 °C for 15 min at 800 × g, and the supernatant was collected. […] Serum ALT levels were measured using Alanine Aminotransferase (ALT or SGPT) Activity Colorimetric/Fluorometric Assay Kit (BioVision) according to the manufacturer’s protocol.
Data are shown as the mean ± SEM (n = 8–10).

[8] = HFD mice, i.p. 1 µmol/kg day, 3 weeks
[9] = HFD mice, 1 μmol/kg day, RT-qPCR, reference gene Rps18
[10] = liver gene expression, 1µmol dose group vs. Vehicle

O=C(O)Cc1cc(C(F)(F)F)c(Cc2ccc(O)c3ccccc23)c(C(F)(F)F)c1 [ZTA-261]
Body weight, 95.00% CI of diff. ND vs. treated ([1]; 0.1 µmol dose group): -17.31 to -8.599
Body weight, Mean Diff. ND vs. treated ([1]; 0.1 µmol dose group): -12.95
Body weight, 95.00% CI of diff. Vehicle vs. treated ([1]; 0.1 µmol dose group): -2.779 to 5.659
Body weight, Mean Diff. Vehicle vs. treated ([1]; 0.1 µmol dose group): 1.44
Body weight, 95.00% CI of diff. ND vs. treated ([1]; 1 µmol dose group): -11.31 to -2.596
Body weight, Mean Diff. ND vs. treated ([1]; 1 µmol dose group): -6.951
Body weight, 95.00% CI of diff. Vehicle vs. treated ([1]; 1 µmol dose group): 3.224 to 11.66
Body weight, Mean Diff. Vehicle vs. treated ([1]; 1 µmol dose group): 7.443
Body weight, group mean (Fig. 3a) ([1]; HFD mice, 0.1 µmol dose group): 41.47
Body weight, individual mice (Fig. 3a) ([1]; HFD mice, 0.1 µmol dose group): 40.29 and 36.71 and 35.46 and 47.2 and 43.74 and 41.64 and 46.66 and 44.04 and 36.76 and 42.23
Body weight, group mean (Fig. 3a) ([1]; HFD mice, 1 µmol dose group): 35.47
Body weight, individual mice (Fig. 3a) ([1]; HFD mice, 1 µmol dose group): 32.91 and 31.68 and 37.61 and 39.1 and 35.68 and 36.65 and 37.77 and 35.13 and 35.26
body weight vs vehicle (in words) ([1]; HFD mice, i.p. 0.1 µmol/kg day, 3 weeks): did not significantly reduce body weight
decrease of body weight compared to vehicle [1, 8]: ~ 20%
Fig. 3b (weight of epididymal adipose tissue), group mean (Mean 2) ([2]; 0.1 µmol): 2650
Fig. 3b (weight of epididymal adipose tissue), Mean Diff. ND vs. treatment (Tukey) ([2]; 0.1 µmol): -1966
Fig. 3b (weight of epididymal adipose tissue), Mean Diff. Vehicle vs. treatment (Tukey) ([2]; 0.1 µmol): 208.4
Fig. 3b (weight of epididymal adipose tissue), group mean (Mean 2) ([2]; 1 µmol): 1679
Fig. 3b (weight of epididymal adipose tissue), Mean Diff. ND vs. treatment (Tukey) ([2]; 1 µmol): -996
Fig. 3b (weight of epididymal adipose tissue), Mean Diff. Vehicle vs. treatment (Tukey) ([2]; 1 µmol): 1179
Epididymal adipose weight, individual mice (Fig. 3b) ([2]; 0.1 µmol dose group): 2776.2 and 2045.1 and 1929.4 and 2510.8 and 2876.4 and 3044.5 and 3312.5 and 2871.5 and 2180.4 and 2949.5
Epididymal adipose weight, individual mice (Fig. 3b) ([2]; 1 µmol dose group): 1625 and 1387 and 1309.2 and 1666.6 and 1860.1 and 1033.5 and 2042 and 1824.7 and 1973.2 and 2072
weight of the epididymal adipose tissue vs vehicle ([2]; i.p. 0.1 µmol/kg day): did not show any obvious effect
weight of the epididymal adipose tissue vs vehicle ([2]; i.p. 1 µmol/kg day): decreased significantly
Serum TC (Fig. 4a), individual mouse values ([3]; 0.1 µmol, HFD mice): 170.917 and 174.042 and 146.958 and 171.875 and 171.042 and 164.292 and 178.75 and 197.208 and 153.333 and 201.333
Serum TG (Fig. 4b), individual mouse values ([3]; 0.1 µmol, HFD mice): 76.25 and 92.083 and 101.25 and 78.417 and 57.583 and 89.25 and 104.25 and 84.25 and 81.75
Serum TC (Fig. 4a), group mean (Mean 2) ([3]; 0.1 µmol, HFD mice): 173
Serum TC (Fig. 4a), Mean Diff. ND vs. treatment (Tukey) ([3]; 0.1 µmol): 6.447
Serum TC (Fig. 4a), Mean Diff. Vehicle vs. treatment (Tukey) ([3]; 0.1 µmol): 77.09
Serum TC (Fig. 4a), individual mouse values ([3]; 1 µmol, HFD mice): 100.083 and 106.125 and 141.958 and 148.125 and 147.292 and 139.708 and 132.5 and 117.5 and 94.583 and 113
Serum TG (Fig. 4b), individual mouse values ([3]; 1 µmol, HFD mice): 52.917 and 53.75 and 90.417 and 88.75 and 67.917 and 87.917 and 73.75 and 69.583 and 82.083 and 85.417
Serum TC (Fig. 4a), group mean (Mean 2) ([3]; 1 µmol, HFD mice): 124.1
Serum TC (Fig. 4a), Mean Diff. ND vs. treatment (Tukey) ([3]; 1 µmol): 55.33
Serum TC (Fig. 4a), Mean Diff. Vehicle vs. treatment (Tukey) ([3]; 1 µmol): 126
Mean Diff., ND vs. treated (Fig. 4b) ([3]; ND minus 0.1 µmol group): 62.42
Mean Diff., ND vs. treated (Fig. 4b) ([3]; ND minus 1 µmol group): 71.52
Mean Diff., Vehicle vs. treated (Fig. 4b) ([3]; Vehicle minus 0.1 µmol group): 31.43
Mean Diff., Vehicle vs. treated (Fig. 4b) ([3]; Vehicle minus 1 µmol group): 40.53
Mean (Fig. 4b) ([3]; 0.1 µmol, HFD mice): 84.35
Mean (Fig. 4b) ([3]; 1 µmol, HFD mice): 75.25
serum triglyceride level vs vehicle [3, 8]: decreased
Oil Red O-positive area in liver sections vs vehicle [4]: significantly reduced
Papp at 30 min, 10 µM [5]: 7.28 ± 2.55 ×10⁻⁶ cm/s
Cyp7a1 expression in the liver, individual animal values ([6]; 1µmol, one value per animal): 0.6381 and 0.6001 and 0.9755 and 0.7051 and 0.7377 and 0.8699 and 1.225 and 1.875 and 1.688 and 1.407
Dio1 expression in the liver, individual animal values ([6]; 1µmol, one value per animal): 2.348 and 0.8674 and 3.4594 and 3.712 and 3.243 and 4.342 and 3.767 and 2.33 and 3.714 and 5.338
Ldlr expression in the liver, individual animal values ([6]; 1µmol, one value per animal): 0.4288 and 1.672 and 1.891 and 1.348 and 1.361 and 2.264 and 2.662 and 1.059 and 1.183 and 1.422
Me1 expression in the liver, individual animal values ([6]; 1µmol, one value per animal): 2.009 and 0.7713 and 1.636 and 2.32 and 2.026 and 3.023 and 3.213 and 2.688 and 3.436 and 4.664
Pnpla2 expression in the liver, individual animal values ([6]; 1µmol, one value per animal): 1.268 and 0.9327 and 2.591 and 7.772 and 2.012 and 5.634 and 5.017 and 1.649 and 3.705 and 2.077
Srebp1c expression in the liver, individual animal values ([6]; 1µmol, one value per animal): 0.1054 and 0.05247 and 0.1951 and 0.3686 and 0.2695 and 0.5078 and 0.5858 and 0.293 and 0.5057 and 0.124
Thrsp expression in the liver, individual animal values ([6]; 1µmol, one value per animal): 1.26 and 1.164 and 1.998 and 1.521 and 1.182 and 1.374 and 1.7691 and 1.941 and 1.759 and 2.356
liver expression of Cyp7a1 vs vehicle [6, 9]: not significantly different
liver expression of Dio1 vs vehicle [6, 9]: significantly upregulated
liver expression of Ldlr vs vehicle [6, 9]: not significantly different
liver expression of Me1 vs vehicle [6, 9]: significantly upregulated
liver expression of Pnpla2 vs vehicle [6, 9]: significantly higher
liver expression of Srebp1c vs vehicle [6, 9]: Although not statistically significant, the ZTA-261-treated group showed decreased Srebp1c expression
liver expression of Thrsp vs vehicle [6, 9]: increased
Pnpla2, Dunn's multiple comparisons test, Mean rank diff. (Vehicle vs. compound) [6, 10]: -17.5
Srebp1c, Dunn's multiple comparisons test, Mean rank diff. (Vehicle vs. compound) [6, 10]: 13.17
Pnpla2, Mean rank of treatment group (Mean rank 2) ([6]; liver gene expression, 1µmol dose group, Vehicle mean rank 8): 25.5
Srebp1c, Mean rank of treatment group (Mean rank 2) ([6]; liver gene expression, 1µmol dose group, Vehicle mean rank […]): 20.5
Serum ALT (Fig.7a), individual animal values ([7]; 0.1 µmol dose group): 6.621 and 5.838 and 5.844 and 8.207 and 7.718 and 6.528 and 9.431 and 12.922 and 7.155 and 6.407
Serum ALT, Tukey's multiple comparisons test, Mean Diff. (Vehicle vs. compound) ([7]; 0.1 µmol dose group vs. Vehicle): 3.439
Serum ALT, group mean (Mean 2) ([7]; 0.1 µmol dose group): 7.667
Serum ALT (Fig.7a), individual animal values ([7]; 1 µmol dose group): 16.644 and 8.576 and 9.103 and 8.327 and 7.596 and 9.601 and 12.863 and 9.311 and 13.948 and 12.038
Serum ALT, Tukey's multiple comparisons test, Mean Diff. (Vehicle vs. compound) ([7]; 1 µmol dose group vs. Vehicle): 0.3054
Serum ALT, group mean (Mean 2) ([7]; 1 µmol dose group): 10.8
serum ALT level vs vehicle ([7]; i.p. 0.1 µmol/kg day): did not show a significant increase
serum ALT level vs vehicle ([7]; i.p. 1 µmol/kg day): did not show a significant increase
